Reference: PubChem BioAssay AID1963847 (Molecular Pharmacology Branch, DTP, NCI, 2024)
pIC50: −log10 of the molar value.

Test system: 415267-285-R-J2-PDC complex spheroid viability
Experiment: Anticancer human tumor 415267-285-R-J2-PDC patient-derived breast carcinoma cell line growth inhibition [POLQ]
Settings: for pIC50: curve of first compound; for viability, T/C: stronger effect = lower value
Description: Multicellular complex tumor spheroid response to Polymerase (POL) inhibitors (novobiocin, ART-558, RP6685) in combination with a variety of drugs and investigational agents in selected tumor cell lines
The POL inhibitors (novobiocin, ART-558, and RP6685) were evaluated both individually and in combination with standard of care and investigational anticancer small molecules within a complex spheroid model of solid tumors. . Complex spheroids include a stromal component modeled by human endothelial cells (HUVEC) and fibroblasts modeled by human mesenchymal stem cells (MSCs). The concentration ranges selected for each drug and investigational agent were based upon clinically achievable concentrations if the clinical Cmax of the agent was known.
Compounds. The drugs and investigational agents: novobiocin (NSC847541), ART-558 (NSC835418), RP-6685 (NSC848927), peposertib (NSC802822), ceralasertib (NSC780249), elimusertib (NSC800525), camonsertib (NSC841442), AZD-1390 (NSC803789), olaparib (NSC753686), talazoparib (NSC767125), rucaparib (NSC756644), sotorasib (NSC818433), MRTX-1133 (NSC836407), SN-38 (NSC673596), topotecan (NSC609699), epotoside (NSC141540), doxorubicin (NSC123127), gemcitabine (NSC613327), 5-fluorouracil (NSC19893), paclitaxel (NSC125973), vemurafenib (NSC761431), MSA-2 (NSC828583), SN-011 (NSC837082), adavosertib (NSC754352), prexasertib (NSC758257), carboplatin (NSC241240) and oxaliplatin (NSC266046), were obtained from the National Cancer Institute (NCI) Developmental Therapeutics Program Chemical Repository (21). The FDA-approved anticancer drug set is available from the Developmental Therapeutics Program at https://dtp.cancer.gov/organization/dscb/obtaining/. […] The stock solutions were prepared in dimethyl sulfoxide (DMSO, Sigma-Aldrich, St. Louis, MO, cat. D2650), except for the platinum compounds which were prepared in saline (Quality Biological, Gaithersburg, MD, cat. 114-055-101), at 800-fold the tested concentration and stored at -70 degrees C prior to their use. All drugs and investigational agents were tested over a range starting from a high concentration at or near the clinical Cmax and decreasing in half-log increments. If the clinical Cmax for an agent had not been determined, the highest concentration tested was 10 microM, except for SN-38, which was tested at a high concentration of 1 microM.
Cell Culture. All cells were maintained in an incubator at 37 degrees C and 5% CO2 with 95% humidity. The PDC lines were cultured according to standard operating procedures established by the NCI PDMR (https://pdmr.cancer.gov). Table 3 of the manuscript, lists the cell lines along with the number of the three cell types plated to form the mct-spheroids and media for tumor cell growth. After thawing, all PDC lines, except 997537-175-T-J1-PDC and 415267-285-R-J2-PDC, were cultured in Matrigel-coated flasks prepared with a working solution of 1X Ham's F-12 nutrient mix, without supplementation (Thermo Fisher Scientific, cat. 11765054), 100 U/mL penicillin-streptomycin (Thermo Fisher Scientific, cat. 15140122), and 2.5% Matrigel (Corning Inc., Corning, NY, cat. 354248) for the first three passages. The two PDC lines 997537-175-T-J1-PDC and 415267-285-R-J2-PDC were cultured on uncoated flasks. The 857933-349-R-J2-PDC line was cultured in 6C/Colon 1B media containing advanced DMEM/F-12 (Thermo Fisher Scientific, cat. 12634028), 10 mM HEPES (Thermo Fisher Scientific, cat. 15630080), 1X GlutaMAX supplement (Thermo Fisher Scientific, cat. 35050061), 0.1 mg/mL primocin (InvivoGen, San Diego, CA, cat. ant-pm-2), 10% defined fetal bovine serum, heat inactivated (HyClone Laboratories Inc., Logan, UT, cat. SH30070.03HI), 50% L-WRN conditioned media (ATCC, cat. CRL-3276), 1.25 mM N-Acetyl-L-cysteine (Sigma-Aldrich, cat. A9165), 10 mM nicotinamide (Sigma-Aldrich, cat. N0636), 1X B-27 supplement (Thermo Fisher Scientific, cat. 17504044), 1X N-2 supplement (Thermo Fisher Scientific, cat. […]
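Further: spheroids exposed to compounds for one week before readout.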
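Wherever viability, T/C is given: luminescence used as stand-in measure of viable cells; 100% = DMSO vehicle control viability.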

How did the pIC50 (second compound 0.0316 µM) turn out when `CC(=O)O[C@H]1C(=O)[C@@]2(C)[C@H]([C@H](OC(=O)c3ccccc3)[C@]3(O)C[C@H](OC(=O)[C@H](O)[C@@H](NC(=O)c4ccccc4)c4ccccc4)C(C)=C1C3(C)C)[C@]1(OC(C)=O)CO[C@@H]1C[C@@H]2O` + Nc1ccc(C#CCN(C(=O)Cc2ncc(C(F)(F)F)cc2C(F)(F)F)c2ccc(F)cc2)nn1 was run?
Its pIC50 is > 8.02.

And the pIC50 (second compound 0.1 µM)?
Its pIC50 is > 8.02.

What about the pIC50 (second compound 0.316 µM) of the same compound?
Its pIC50 is > 8.02.

And the pIC50 (second compound 1 µM)?
The pIC50 was > 8.02.

What about the pIC50 (second compound 3.16 µM) of the same compound?
The pIC50 was > 8.02.

What about the pIC50 (second compound 10 µM) of the same compound?
Its pIC50 is > 8.02.

And the viability, T/C (second compound 0.0316 µM, first compound 0.00949 µM)?
The viability, T/C was 16.4%.

What about the viability, T/C (second compound 0.0316 µM, first compound 0.03 µM) of the same compound?
Its viability, T/C is 11.2%.

And the viability, T/C (second compound 0.0316 µM, first compound 0.0949 µM)?
Its viability, T/C is 7.8%.

And the viability, T/C (second compound 0.0316 µM, first compound 0.3 µM)?
The viability, T/C was 12.3%.

And the viability, T/C (second compound 0.0316 µM, first compound 0.949 µM)?
The viability, T/C was 7.65%.

What about the viability, T/C (second compound 0.0316 µM, first compound 3 µM) of the same compound?
The viability, T/C was 9.67%.

And the viability, T/C (second compound 0.1 µM, first compound 0.00949 µM)?
The viability, T/C was 28.2%.

And the viability, T/C (second compound 0.1 µM, first compound 0.03 µM)?
Its viability, T/C is 10.1%.

What about the viability, T/C (second compound 0.1 µM, first compound 0.0949 µM) of the same compound?
The viability, T/C was 7.84%.

What about the viability, T/C (second compound 0.1 µM, first compound 0.3 µM) of the same compound?
The viability, T/C was 8.82%.

And the viability, T/C (second compound 0.1 µM, first compound 0.949 µM)?
Its viability, T/C is 5.94%.

And the viability, T/C (second compound 0.1 µM, first compound 3 µM)?
The viability, T/C was 7.04%.

What about the viability, T/C (second compound 0.316 µM, first compound 0.00949 µM) of the same compound?
Its viability, T/C is 25.4%.

And the viability, T/C (second compound 0.316 µM, first compound 0.03 µM)?
The viability, T/C was 10.4%.

What about the viability, T/C (second compound 0.316 µM, first compound 0.0949 µM) of the same compound?
Its viability, T/C is 8.11%.

And the viability, T/C (second compound 0.316 µM, first compound 0.3 µM)?
Its viability, T/C is 6.83%.

What about the viability, T/C (second compound 0.316 µM, first compound 0.949 µM) of the same compound?
The viability, T/C was 6.61%.

And the viability, T/C (second compound 0.316 µM, first compound 3 µM)?
Its viability, T/C is 9.16%.

And the viability, T/C (second compound 1 µM, first compound 0.00949 µM)?
Its viability, T/C is 17.4%.

And the viability, T/C (second compound 1 µM, first compound 0.03 µM)?
The viability, T/C was 9.17%.

And the viability, T/C (second compound 1 µM, first compound 0.0949 µM)?
Its viability, T/C is 6.64%.

And the viability, T/C (second compound 1 µM, first compound 0.3 µM)?
The viability, T/C was 8.77%.

What about the viability, T/C (second compound 1 µM, first compound 0.949 µM) of the same compound?
The viability, T/C was 7.65%.

What about the viability, T/C (second compound 1 µM, first compound 3 µM) of the same compound?
The viability, T/C was 7.96%.

And the viability, T/C (second compound 3.16 µM, first compound 0.00949 µM)?
Its viability, T/C is 14.3%.

What about the viability, T/C (second compound 3.16 µM, first compound 0.03 µM) of the same compound?
The viability, T/C was 10%.

What about the viability, T/C (second compound 3.16 µM, first compound 0.0949 µM) of the same compound?
Its viability, T/C is 8.75%.

And the viability, T/C (second compound 3.16 µM, first compound 0.3 µM)?
Its viability, T/C is 6.53%.

What about the viability, T/C (second compound 3.16 µM, first compound 0.949 µM) of the same compound?
Its viability, T/C is 7.79%.

What about the viability, T/C (second compound 3.16 µM, first compound 3 µM) of the same compound?
Its viability, T/C is 7.72%.

What about the viability, T/C (second compound 10 µM, first compound 0.00949 µM) of the same compound?
The viability, T/C was 13.3%.

What about the viability, T/C (second compound 10 µM, first compound 0.03 µM) of the same compound?
Its viability, T/C is 9.57%.

And the viability, T/C (second compound 10 µM, first compound 0.0949 µM)?
The viability, T/C was 8.39%.

What about the viability, T/C (second compound 10 µM, first compound 0.3 µM) of the same compound?
Its viability, T/C is 9.61%.

What about the viability, T/C (second compound 10 µM, first compound 0.949 µM) of the same compound?
The viability, T/C was 8.58%.

And the viability, T/C (second compound 10 µM, first compound 3 µM)?
Its viability, T/C is 8.25%.
